Test results taken from ChEMBL document CHEMBL1287736, “Design of a novel class of biphenyl CETP inhibitors” (Bioorg Med Chem Lett, 2010).

How the values were obtained:
[1] = target: T1, Cholesteryl ester transfer protein (Homo sapiens, UniProt P11597); assay: Inhibition of CETP-mediated neutral lipid transfer by fluorometric analysis
T1 sequence (P11597 whole entry): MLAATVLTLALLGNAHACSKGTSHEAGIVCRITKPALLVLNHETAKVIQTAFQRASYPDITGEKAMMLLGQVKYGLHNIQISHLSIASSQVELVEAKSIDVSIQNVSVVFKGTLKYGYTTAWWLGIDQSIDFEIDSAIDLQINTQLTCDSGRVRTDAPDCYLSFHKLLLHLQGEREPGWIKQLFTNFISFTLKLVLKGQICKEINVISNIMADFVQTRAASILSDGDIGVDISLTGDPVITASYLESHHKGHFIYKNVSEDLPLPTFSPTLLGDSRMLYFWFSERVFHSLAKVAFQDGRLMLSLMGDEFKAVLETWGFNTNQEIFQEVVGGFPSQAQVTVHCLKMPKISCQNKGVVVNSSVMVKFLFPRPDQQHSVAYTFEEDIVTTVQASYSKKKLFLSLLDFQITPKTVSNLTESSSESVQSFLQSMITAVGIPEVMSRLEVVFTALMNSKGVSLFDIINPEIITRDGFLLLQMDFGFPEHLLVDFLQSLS

Mus musculus [2] = assay: Cardioprotective activity in transgenic B6 mouse expressing cynomolgus monkey CETP assessed as increase in HDL-cholesterol level at 3 mg/kg, po BID measured after 24 hrs of first dose; assay type: functional
Mus musculus [3] = assay: Cardioprotective activity in transgenic B6 mouse expressing cynomolgus monkey CETP assessed as increase in HDL-cholesterol level at 10 mg/kg, po BID measured after 24 hrs of first dose; assay type: functional
Mus musculus [4] = assay: Cardioprotective activity in transgenic B6 mouse expressing cynomolgus monkey CETP assessed as increase in HDL-cholesterol level at 1 mg/kg, po BID measured after 24 hrs of first dose; assay type: functional
Mus musculus [5] = assay: Cardioprotective activity in po dosed transgenic B6 mouse expressing cynomolgus monkey CETP assessed as increase in HDL-cholesterol level administered BID measured after 24 hrs of first dose; assay type: functional, organism-based
Mus musculus [6] = assay: Cardioprotective activity in transgenic B6 mouse expressing cynomolgus monkey CETP assessed as increase in HDL-cholesterol level at 30 mg/kg, po BID measured after 24 hrs of first dose; assay type: functional
Mus musculus [7] = assay: Cardioprotective activity in transgenic B6 mouse expressing cynomolgus monkey CETP assessed as increase in HDL-cholesterol level at 100 mg/kg, po BID measured after 24 hrs of first dose; assay type: functional

SMILES	IC50 [1]	further results
COC(=O)N(Cc1cc(C(F)(F)F)cc(C(F)(F)F)c1)Cc1cc(C(F)(F)F)ccc1-c1cc(C(C)C)ccc1OC	108 nM	Activity (Mus musculus [2]): 43%; Activity (Mus musculus [3]): 54%; Activity (Mus musculus [4]): 37%; Activity (Mus musculus [5]): Dose-dependent effect; Activity (Mus musculus [6]): 86%
COC(=O)N(Cc1cc(C(F)(F)F)cc(C(F)(F)F)c1)Cc1cc([N+](=O)[O-])ccc1-c1cc(C(C)C)ccc1OC	134 nM	
COC(=O)N(Cc1cc(C(F)(F)F)cc(C(F)(F)F)c1)Cc1cc(Cl)ccc1-c1cc(C(C)C)ccc1OC	1430 nM	
COC(=O)N(Cc1cc(C(F)(F)F)cc(C(F)(F)F)c1)Cc1cc(C#N)ccc1-c1cc(C(C)C)ccc1OC	224 nM	
COC(=O)N(Cc1cc(C(F)(F)F)cc(C(F)(F)F)c1)Cc1ccccc1-c1cc(C(C)C)ccc1OC	3830 nM	
COC(=O)N(Cc1cc(C(F)(F)F)cc(C(F)(F)F)c1)Cc1cc(F)ccc1-c1cc(C(C)C)ccc1OC	1730 nM	
COC(=O)N(Cc1cc(C(F)(F)F)cc(C(F)(F)F)c1)Cc1cc(N)ccc1-c1cc(C(C)C)ccc1OC	4660 nM	
COC(=O)N(Cc1cc(C(F)(F)F)cc(C(F)(F)F)c1)Cc1cc(C(F)(F)F)ccc1-c1cc(C)ccc1OC	469 nM	Activity (Mus musculus [7]): 40%
CCOc1ccc(C)cc1-c1ccc(C(F)(F)F)cc1CN(Cc1cc(C(F)(F)F)cc(C(F)(F)F)c1)C(=O)OC	4490 nM	
COC(=O)N(Cc1cc(C(F)(F)F)cc(C(F)(F)F)c1)Cc1cc(C(F)(F)F)ccc1-c1cc(C(C)(C)C)ccc1OC	2590 nM	
COC(=O)N(Cc1cc(C(F)(F)F)cc(C(F)(F)F)c1)Cc1cc(C(F)(F)F)ccc1-c1cc(OC)ccc1OC	444 nM	
CCCc1ccc(OC)c(-c2ccc(C(F)(F)F)cc2CN(Cc2cc(C(F)(F)F)cc(C(F)(F)F)c2)C(=O)OC)c1	753 nM	
COC(=O)N(Cc1cc(C(F)(F)F)cc(C(F)(F)F)c1)Cc1cc(C(F)(F)F)ccc1-c1ccccc1OC	1600 nM	
COC(=O)N(Cc1cc(C(F)(F)F)cc(C(F)(F)F)c1)Cc1cc(OC)ccc1-c1cc(C(C)C)ccc1OC	694 nM	
COC(=O)N(Cc1cc(C(F)(F)F)cc(C(F)(F)F)c1)Cc1cc(C(C)(C)C)ccc1-c1cc(C(C)C)ccc1OC	9510 nM	
COC(=O)N(Cc1cc(C(F)(F)F)cc(C(F)(F)F)c1)Cc1cc(I)ccc1-c1cc(C(C)C)ccc1OC	365 nM	
COC(=O)N(Cc1cc(C(F)(F)F)cc(C(F)(F)F)c1)Cc1cc(C(F)(F)F)ccc1-c1cc(C(C)C)c(F)cc1OC	117 nM	
CCc1ccc(OC)c(-c2ccc(C(F)(F)F)cc2CN(Cc2cc(C(F)(F)F)cc(C(F)(F)F)c2)C(=O)OC)c1	210 nM	
